Tests used:
PPARγ = biological target: T1, PPARγ (Homo sapiens, UniProt P37231); experiment: PPARγ Gal4 hybrid reporter gene assay; assay type: cell-based; details: for EC50 / PPARγ fold activ. (max. activation): Gal4-hybrid reporter, HEK293T cells; for Selectivity for PPARγ: versus PPARα and PPARδ hybrid reporters
T1 construct: expressed in transfected cells; host or cells: HEK293T
T1 sequence (P37231 238-503 limits assumed): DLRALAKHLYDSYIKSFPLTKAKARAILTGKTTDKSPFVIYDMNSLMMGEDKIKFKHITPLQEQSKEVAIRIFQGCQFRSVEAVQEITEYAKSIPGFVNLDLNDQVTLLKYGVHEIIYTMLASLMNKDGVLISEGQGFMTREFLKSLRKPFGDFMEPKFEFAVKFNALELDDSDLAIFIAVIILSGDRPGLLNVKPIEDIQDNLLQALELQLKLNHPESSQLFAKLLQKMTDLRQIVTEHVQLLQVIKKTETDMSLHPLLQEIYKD
Experimental: All well-established assays were performed following straightforward methodology.[49] Plasmids pFA-CMV-hPPARα-LBD, pFA-CMV-hPPARγ-LBD and pFA-CMV-hPPARδ-LBD code for the hinge region and ligand binding domain of the canonical isoform of the respective nuclear receptor and were used to express the Gal4 hybrid receptors. pFR-Luc (Stratagene, La Jolla, CA, USA) and pRL-SV40 (Promega, Madison, WI, USA) were used as Gal4-responsive reporter and as internal control in the hybrid reporter gene assays, respectively. HEK293T cells were seeded in 96-well plates (3×10^4 cells/well). Before transfection, the medium was changed to Opti-MEM without supplements, and transient transfection with the plasmids pFR-Luc, pRL-SV40, and one pFA-CMV-NR-LBD clone was carried out using Lipofectamine LTX reagent (Invitrogen, Carlsbad, CA, USA) according to the manufacturer’s protocol. […] Normalisation of transfection efficiency and cell growth was performed by dividing firefly luminescence by Renilla luminescence and multiplying the result by 1000, yielding relative light units (RLU). Fold activation was obtained by dividing the mean RLU of the test compound by the mean RLU of the untreated control.

[1] = Fast-track PK of compound 5: plasma exposure after i.v., i.p., inhalation, per os; assay type: in vivo, mice; details: 30 mg/kg, 1 and 3 h post-dose, versus i.v.
PPARγ LBD = biological target: T2, PPARγ LBD (Homo sapiens, UniProt P37231); experiment: Isothermal titration calorimetry (ITC); assay type: binding; details: for Kd: PPARγ LBD, 25°C
T2 construct: using recombinant PPARγ LBD protein dissolved in a buffer; made in house
T2 sequence (P37231 238-503 limits assumed): T1 sequence (P37231 238-503 limits assumed)
Experimental: ITC was performed[49] on a TA Instruments Affinity ITC (TA Instruments, New Castle, Delaware, USA), using recombinant PPARγ LBD protein dissolved in a buffer containing 25 mM HEPES, 150 mM KF, 5 mM DTT, 10% w/v glycerol and 1% DMSO at pH 7.5. […] The titration was performed at 25°C with a stirring rate of 75 rpm. An interval of 300 s was maintained between injections. ITC raw data were analyzed with the NanoAnalyze software package (version 3.7.5). An independent binding model was used to fit the reaction enthalpy (ΔH), binding affinity constant (KD), and stoichiometry (n). Free energy change (ΔG) was calculated with the equation ΔG = −RT ln K and the entropy (ΔS) was calculated with the equation ΔG = ΔH−TΔS.

[2] = PK of EL244: plasma and lung levels after i.p. or inhaled administration; assay type: in vivo, mice
3T3-L1 = experiment: Differentiation of 3T3-L1 fibroblasts into adipocytes; assay type: cell-based
Experimental: Adipogenic differentiation was carried out following a well-established protocol.[63]^,[142] Upon reaching approximately 70% confluence, cells were induced to differentiate (day 0) by replacing the culture medium with complete DMEM containing 10μg/mL insulin. Experimental groups received either EL244 (1μM or 10μΜ) or the standard adipogenic induction cocktail consisting of 1μM dexamethasone (DEX) and 0.5mM 3-isobutyl-1-methylxanthine (IBMX), as indicated. On day 3, the medium was replaced with complete DMEM supplemented with 10μg/mL insulin, with continued exposure to EL244 (1μM or 10μM) in the respective treatment groups. On day 6, the medium was refreshed with complete DMEM containing the corresponding concentrations of EL244.
Differentiated adipocytes were fixed with 10% formalin solution for 2 h, washed with 60% isopropanol, and stained with filtered 0.3% (w/v) Oil red O solution for 20 min. Following staining, cells were washed three times with dH2O to remove excess dye and observed using a bright-field microscope. Fow quantification, cells were destained with 100% isopropanol and lipid accumulation levels were quantified by Oil red O absorption at 500nm.

type 2 diabetes model = experiment: HFD/STZ type 2 diabetes model, oGTT; assay type: in vivo, C57bl/6 male mice; details: i.p. 50 mg/kg daily, final 2 weeks
Experimental: One-year old male mice were given a High-Fat Diet (D12492, Research Diets) for 10 weeks. During the sixth week of the HFD period, mice received three streptozotocin injections (40mg/kg). Control mice that were consuming a control diet (D12450Ji, Research Diets) received injections with the solvent of STZ, 50 mM sodium citrate buffer, pH 4.5. During the last two weeks of the HFD treatment, a subgroup of prediabetic mice was daily administered EL244 through intraperitoneal injections (50 mg/kg). Disease induction and EL244 efficacy were assessed using an Oral Glucose tolerance test (oGTT), as widely used.[64]^,[65]^,[66] 6-hr-fasted mice were administered a 10% glucose solution at 1 g/kg orally. Blood glucose levels were measured with a saccharometer before glucose administration and at 15, 30, 60, 90, and 120 min thereafter. Insulin resistance was assessed by the Area under curve (AUC) of the oGTT.

hERG = hERG (Homo sapiens, UniProt Q12809); experiment: hERG inhibition; assay type: biochemical
Chain of hERG (Q12809 whole entry): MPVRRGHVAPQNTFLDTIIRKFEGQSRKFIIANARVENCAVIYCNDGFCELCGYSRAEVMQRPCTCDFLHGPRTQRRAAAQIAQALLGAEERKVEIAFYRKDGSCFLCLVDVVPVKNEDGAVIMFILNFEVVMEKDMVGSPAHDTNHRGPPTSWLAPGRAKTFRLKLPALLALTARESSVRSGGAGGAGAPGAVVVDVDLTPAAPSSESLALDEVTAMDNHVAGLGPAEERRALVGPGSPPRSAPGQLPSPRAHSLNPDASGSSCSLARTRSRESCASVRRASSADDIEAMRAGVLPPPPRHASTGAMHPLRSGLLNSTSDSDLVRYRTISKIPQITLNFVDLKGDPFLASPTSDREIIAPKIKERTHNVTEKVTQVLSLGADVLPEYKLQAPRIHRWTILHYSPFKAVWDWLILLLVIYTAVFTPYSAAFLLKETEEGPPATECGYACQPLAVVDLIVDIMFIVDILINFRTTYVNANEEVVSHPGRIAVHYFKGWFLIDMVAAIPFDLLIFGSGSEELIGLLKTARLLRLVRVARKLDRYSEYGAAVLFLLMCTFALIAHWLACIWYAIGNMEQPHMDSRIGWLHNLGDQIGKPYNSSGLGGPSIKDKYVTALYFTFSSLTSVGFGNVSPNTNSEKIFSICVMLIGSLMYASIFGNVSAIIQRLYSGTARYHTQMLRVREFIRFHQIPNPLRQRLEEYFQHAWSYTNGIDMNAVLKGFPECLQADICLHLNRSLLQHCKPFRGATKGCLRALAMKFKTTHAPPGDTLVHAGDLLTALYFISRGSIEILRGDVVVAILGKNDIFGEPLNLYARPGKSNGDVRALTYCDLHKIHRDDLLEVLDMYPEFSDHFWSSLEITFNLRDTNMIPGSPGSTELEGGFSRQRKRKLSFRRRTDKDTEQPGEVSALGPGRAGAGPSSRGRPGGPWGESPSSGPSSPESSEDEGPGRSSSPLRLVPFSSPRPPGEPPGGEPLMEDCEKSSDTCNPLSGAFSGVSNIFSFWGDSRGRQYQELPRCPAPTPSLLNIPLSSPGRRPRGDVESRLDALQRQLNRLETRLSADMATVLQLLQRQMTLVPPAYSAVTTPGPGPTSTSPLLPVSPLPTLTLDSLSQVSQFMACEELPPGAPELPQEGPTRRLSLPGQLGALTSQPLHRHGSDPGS

Structure (SMILES)	EC50 (PPARγ) [nM]	PPARγ fold activ. (max. activation) (PPARγ) [fold]	Selectivity for PPARγ (PPARγ)	Plasma concentrations after i.p. and per os administration [1]	Thermodynamics of binding to PPARγ-LBD (PPARγ LBD)	Kd (PPARγ LBD) [nM]	Plasma concentration ([2]; i.p. 30 mg/Kg, 3 h) [μΜ]	Clearance rate from the lung and absorption in the systemic circulation ([2]; inhaled 15 mg/kg)	Retention in the lung ([2]; inhaled 15 mg/kg)	concentration at 1 h ([2]; mouse, plasma, ip, i.p. 30 mg/Kg, 1 hour) [µM]	concentration at 9 h ([2]; mouse, plasma, ip, i.p. 30 mg/Kg, 9 h post-dose) [µM]	Adipogenesis (oil red O lipid droplets) (3T3-L1; 1 or 10 μM with insulin, compared with IBMX/DEX)	Expression of PPARγ target genes (Adipoq, Fabp4, CD36) and PPARγ (3T3-L1; RT-qPCR)	Glucose levels (type 2 diabetes model)	Insulin resistance (AUC of oGTT) (type 2 diabetes model)	PPARγ target gene expression in adipose and liver tissue (type 2 diabetes model)	IC50 (hERG) [nM]	inhibition at 25 μM (hERG; human, 25 μΜ) [%]
O=C1NC(=O)C(Cc2ccc(OCCN3CCN(C(=O)OCc4cc(Cl)cc(Cl)c4)CC3)cc2)S1 (centres unmarked) [Compound 5, 3,5-dichlorobenzyl4-(2-(4-((2,4-dioxothiazolidin-5-yl)methyl)phenoxy)ethyl)piperazine-1-carboxylate]	1500	9 ± 1	selective PPARγ agonist	comparable to the respective i.v. concentrations	entropy-driven	600	–	–	–	–	–	–	–	–	–	–	–	–
O=C1NC(=O)C(Cc2ccc(OCCC3CCN(C(=O)OCc4cc(Cl)cc(Cl)c4)CC3)cc2)S1 (centres unmarked) [EL244, 3,5-dichlorobenzyl 4-(2-(4-((2,4-dioxothiazolidin-5-yl)methyl)phenoxy)ethyl)piperidine-1-carboxylate]	1300	17 ± 1	selectively	–	enthalpy-driven	1300	~35	low	highly retained in the lung	40	15	promoted adipogenesis dose responsively	induced the expression of several PPARγ target genes	lower glucose levels	decreased insulin resistance	stimulated the expression of several PPARγ target genes	> 25000	~12

Source: publication PMC13198257, “An aerosolized dual-action autotaxin inhibitor-PPARγ agonist for the treatment of pulmonary fibrosis” (Cell Reports Medicine, 2026)
